# Test results as given in ChEMBL document CHEMBL4507319 (2021).
# Assays:
# [1] = biological target: Serine/threonine-protein kinase RIO3 (Homo sapiens) (UniProt O14730); conditions: Compound concentration 1000.0 nM
# [2] = biological target: Ribosomal protein S6 kinase alpha-2 (Homo sapiens, UniProt Q15349); conditions: Compound concentration 1000.0 nM
# [3] = biological target: Serine/threonine-protein kinase 38-like (Homo sapiens) (UniProt Q9Y2H1); conditions: Compound concentration 1000.0 nM
# [4] = biological target: Mitogen-activated protein kinase kinase kinase 19 (Homo sapiens) (UniProt Q56UN5); conditions: Compound concentration 1000.0 nM
# [5] = biological target: Cyclin-dependent kinase 2 (Homo sapiens) (UniProt P24941); conditions: Compound concentration 1000.0 nM
# [6] = biological target: Tyrosine-protein kinase HCK (Homo sapiens) (UniProt P08631); conditions: Compound concentration 1000.0 nM
# [7] = biological target: T1, Testis-specific serine/threonine-protein kinase 1 (Homo sapiens) (UniProt Q9BXA7); conditions: Compound concentration 1000.0 nM
# T1 sequence (whole entry): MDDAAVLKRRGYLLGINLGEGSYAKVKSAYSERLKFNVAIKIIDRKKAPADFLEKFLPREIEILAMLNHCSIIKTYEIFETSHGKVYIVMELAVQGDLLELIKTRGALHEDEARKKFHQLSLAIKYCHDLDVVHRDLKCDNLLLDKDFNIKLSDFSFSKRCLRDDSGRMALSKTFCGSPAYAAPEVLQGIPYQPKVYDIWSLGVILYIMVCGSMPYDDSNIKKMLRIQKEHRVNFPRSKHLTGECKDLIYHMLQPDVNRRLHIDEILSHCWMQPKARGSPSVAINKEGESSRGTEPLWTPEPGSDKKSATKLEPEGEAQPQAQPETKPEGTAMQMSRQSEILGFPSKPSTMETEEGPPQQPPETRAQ
# [8] = biological target: Insulin receptor (Homo sapiens) (UniProt P06213); conditions: Compound concentration 1000.0 nM
# [9] = biological target: T2, Dual specificity mitogen-activated protein kinase kinase 7 (Homo sapiens) (UniProt O14733); conditions: Compound concentration 1000.0 nM
# T2 sequence (whole entry): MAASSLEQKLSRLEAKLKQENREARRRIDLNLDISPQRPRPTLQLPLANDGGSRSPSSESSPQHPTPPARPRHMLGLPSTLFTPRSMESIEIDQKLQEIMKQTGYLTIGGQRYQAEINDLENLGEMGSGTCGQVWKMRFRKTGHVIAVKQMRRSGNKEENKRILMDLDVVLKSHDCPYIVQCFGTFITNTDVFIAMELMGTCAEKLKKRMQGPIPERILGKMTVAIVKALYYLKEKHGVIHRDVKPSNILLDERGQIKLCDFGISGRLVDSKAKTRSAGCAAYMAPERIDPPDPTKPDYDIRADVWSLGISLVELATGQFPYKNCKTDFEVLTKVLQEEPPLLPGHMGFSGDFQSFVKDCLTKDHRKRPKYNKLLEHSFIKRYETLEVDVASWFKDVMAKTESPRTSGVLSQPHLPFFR
# [10] = biological target: T3, Bone morphogenetic protein receptor type-2 (Homo sapiens) (UniProt Q13873); conditions: Compound concentration 1000.0 nM
# T3 sequence (whole entry): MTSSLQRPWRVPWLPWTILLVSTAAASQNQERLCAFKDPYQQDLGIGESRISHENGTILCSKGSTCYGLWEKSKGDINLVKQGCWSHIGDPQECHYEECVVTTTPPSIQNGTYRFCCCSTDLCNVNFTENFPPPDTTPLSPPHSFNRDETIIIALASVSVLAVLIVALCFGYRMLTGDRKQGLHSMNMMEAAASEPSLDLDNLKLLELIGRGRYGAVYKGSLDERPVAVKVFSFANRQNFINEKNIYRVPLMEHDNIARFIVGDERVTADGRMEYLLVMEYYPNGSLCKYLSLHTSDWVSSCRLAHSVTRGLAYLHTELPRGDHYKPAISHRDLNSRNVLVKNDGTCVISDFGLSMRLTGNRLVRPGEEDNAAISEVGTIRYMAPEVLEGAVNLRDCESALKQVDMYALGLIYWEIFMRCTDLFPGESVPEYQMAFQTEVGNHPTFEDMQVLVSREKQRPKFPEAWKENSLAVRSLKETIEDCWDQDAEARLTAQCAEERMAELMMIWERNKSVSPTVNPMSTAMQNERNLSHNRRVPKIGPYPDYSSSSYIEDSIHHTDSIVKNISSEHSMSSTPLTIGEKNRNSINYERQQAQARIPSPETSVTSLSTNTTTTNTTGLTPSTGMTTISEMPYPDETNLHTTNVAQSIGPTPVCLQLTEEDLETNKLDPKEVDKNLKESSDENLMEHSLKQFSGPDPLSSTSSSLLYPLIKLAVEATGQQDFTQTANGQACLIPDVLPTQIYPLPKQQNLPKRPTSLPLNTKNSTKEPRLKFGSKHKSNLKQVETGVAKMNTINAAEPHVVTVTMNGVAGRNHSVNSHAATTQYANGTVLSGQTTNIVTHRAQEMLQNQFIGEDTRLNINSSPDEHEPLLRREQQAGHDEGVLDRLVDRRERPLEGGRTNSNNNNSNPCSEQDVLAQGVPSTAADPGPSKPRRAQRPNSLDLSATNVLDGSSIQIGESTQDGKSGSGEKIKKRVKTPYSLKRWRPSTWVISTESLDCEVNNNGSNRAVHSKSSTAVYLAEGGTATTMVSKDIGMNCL
# [11] = biological target: Muscarinic acetylcholine receptor M3 (Homo sapiens) (UniProt P20309); conditions: Compound concentration 10.0 uM
# Chain of Muscarinic acetylcholine receptor M3 (Homo sapiens) (P20309 whole entry, looked up): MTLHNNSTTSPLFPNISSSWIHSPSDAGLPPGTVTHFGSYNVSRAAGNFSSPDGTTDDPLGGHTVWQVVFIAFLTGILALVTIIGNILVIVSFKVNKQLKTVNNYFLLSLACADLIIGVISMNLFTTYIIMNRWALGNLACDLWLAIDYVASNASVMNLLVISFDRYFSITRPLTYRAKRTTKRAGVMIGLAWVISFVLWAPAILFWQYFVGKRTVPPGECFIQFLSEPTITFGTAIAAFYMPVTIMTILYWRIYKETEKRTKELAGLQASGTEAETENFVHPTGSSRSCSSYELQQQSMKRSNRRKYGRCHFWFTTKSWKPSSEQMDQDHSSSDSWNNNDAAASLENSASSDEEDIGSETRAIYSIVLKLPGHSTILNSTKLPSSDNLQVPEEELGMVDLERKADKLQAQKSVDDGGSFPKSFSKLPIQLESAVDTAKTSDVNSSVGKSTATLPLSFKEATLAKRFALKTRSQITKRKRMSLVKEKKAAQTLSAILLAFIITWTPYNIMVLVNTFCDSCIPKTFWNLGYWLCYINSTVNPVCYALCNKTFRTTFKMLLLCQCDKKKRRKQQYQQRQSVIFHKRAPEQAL
# Chain of Serine/threonine-protein kinase RIO3 (Homo sapiens) (O14730 whole entry): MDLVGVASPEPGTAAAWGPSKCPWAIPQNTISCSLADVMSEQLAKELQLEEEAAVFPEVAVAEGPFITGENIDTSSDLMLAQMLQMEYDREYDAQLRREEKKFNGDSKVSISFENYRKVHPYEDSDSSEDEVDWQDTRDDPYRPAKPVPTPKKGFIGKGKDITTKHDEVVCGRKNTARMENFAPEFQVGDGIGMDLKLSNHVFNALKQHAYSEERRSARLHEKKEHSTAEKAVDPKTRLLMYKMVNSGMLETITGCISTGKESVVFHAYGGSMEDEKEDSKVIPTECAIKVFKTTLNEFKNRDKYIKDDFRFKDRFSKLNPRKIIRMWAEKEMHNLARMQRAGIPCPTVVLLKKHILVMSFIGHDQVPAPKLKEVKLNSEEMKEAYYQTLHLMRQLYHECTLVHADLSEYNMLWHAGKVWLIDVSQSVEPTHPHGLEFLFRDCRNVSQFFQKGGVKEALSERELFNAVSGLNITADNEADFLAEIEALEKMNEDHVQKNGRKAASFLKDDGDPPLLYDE
# Chain of Mitogen-activated protein kinase kinase kinase 19 (Homo sapiens) (Q56UN5 whole entry): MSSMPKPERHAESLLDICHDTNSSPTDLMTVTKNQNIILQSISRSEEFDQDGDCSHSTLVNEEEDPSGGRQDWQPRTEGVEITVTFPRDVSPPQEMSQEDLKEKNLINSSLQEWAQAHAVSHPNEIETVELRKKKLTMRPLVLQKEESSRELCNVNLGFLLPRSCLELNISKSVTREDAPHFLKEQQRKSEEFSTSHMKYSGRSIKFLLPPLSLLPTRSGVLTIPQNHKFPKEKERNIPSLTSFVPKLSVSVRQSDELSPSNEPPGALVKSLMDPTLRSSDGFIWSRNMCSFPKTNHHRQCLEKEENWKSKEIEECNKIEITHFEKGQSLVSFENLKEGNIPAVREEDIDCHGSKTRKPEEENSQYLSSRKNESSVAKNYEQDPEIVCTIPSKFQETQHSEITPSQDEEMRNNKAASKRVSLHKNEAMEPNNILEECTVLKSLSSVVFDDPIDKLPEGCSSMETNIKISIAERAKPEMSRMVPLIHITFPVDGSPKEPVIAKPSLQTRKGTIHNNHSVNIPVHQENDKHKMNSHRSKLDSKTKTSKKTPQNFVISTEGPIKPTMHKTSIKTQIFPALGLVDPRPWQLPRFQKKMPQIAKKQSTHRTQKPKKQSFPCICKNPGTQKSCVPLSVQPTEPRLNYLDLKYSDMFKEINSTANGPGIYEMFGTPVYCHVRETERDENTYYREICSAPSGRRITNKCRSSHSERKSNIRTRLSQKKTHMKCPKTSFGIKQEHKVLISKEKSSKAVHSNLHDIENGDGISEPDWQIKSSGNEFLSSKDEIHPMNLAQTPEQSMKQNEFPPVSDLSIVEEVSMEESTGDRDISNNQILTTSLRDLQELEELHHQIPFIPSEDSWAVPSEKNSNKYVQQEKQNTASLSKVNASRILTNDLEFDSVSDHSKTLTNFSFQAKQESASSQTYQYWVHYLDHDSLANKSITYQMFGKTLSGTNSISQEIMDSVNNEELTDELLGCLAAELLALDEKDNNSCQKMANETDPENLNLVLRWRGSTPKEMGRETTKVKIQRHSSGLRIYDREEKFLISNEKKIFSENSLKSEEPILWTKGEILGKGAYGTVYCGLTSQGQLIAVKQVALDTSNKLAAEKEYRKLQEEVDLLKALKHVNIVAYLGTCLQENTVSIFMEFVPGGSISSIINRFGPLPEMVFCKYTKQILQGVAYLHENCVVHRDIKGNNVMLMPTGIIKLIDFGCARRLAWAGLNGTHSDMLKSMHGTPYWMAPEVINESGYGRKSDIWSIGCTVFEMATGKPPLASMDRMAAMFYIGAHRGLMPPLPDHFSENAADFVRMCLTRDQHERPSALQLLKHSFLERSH
# Chain of Ribosomal protein S6 kinase alpha-2 (Q15349 whole entry): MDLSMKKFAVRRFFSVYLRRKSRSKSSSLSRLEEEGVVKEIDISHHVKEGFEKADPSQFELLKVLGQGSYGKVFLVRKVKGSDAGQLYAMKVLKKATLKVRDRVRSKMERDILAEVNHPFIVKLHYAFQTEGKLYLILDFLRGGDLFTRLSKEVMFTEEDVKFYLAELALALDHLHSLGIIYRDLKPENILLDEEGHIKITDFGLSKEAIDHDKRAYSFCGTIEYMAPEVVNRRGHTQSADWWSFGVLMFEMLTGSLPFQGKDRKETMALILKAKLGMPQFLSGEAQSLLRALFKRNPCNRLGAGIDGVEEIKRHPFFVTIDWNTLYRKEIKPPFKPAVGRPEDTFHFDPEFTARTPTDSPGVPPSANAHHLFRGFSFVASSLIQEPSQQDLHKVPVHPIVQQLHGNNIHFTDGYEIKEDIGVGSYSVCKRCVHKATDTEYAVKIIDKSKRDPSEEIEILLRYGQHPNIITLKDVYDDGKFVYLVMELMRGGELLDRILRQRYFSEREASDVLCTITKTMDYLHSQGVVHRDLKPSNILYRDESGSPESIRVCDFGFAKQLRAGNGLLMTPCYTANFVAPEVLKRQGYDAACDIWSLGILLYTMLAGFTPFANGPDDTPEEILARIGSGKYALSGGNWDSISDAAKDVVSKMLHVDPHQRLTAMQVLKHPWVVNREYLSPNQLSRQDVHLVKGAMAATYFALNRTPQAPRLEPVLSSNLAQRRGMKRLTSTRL
# Chain of Insulin receptor (Homo sapiens) (P06213 28-758 limits assumed): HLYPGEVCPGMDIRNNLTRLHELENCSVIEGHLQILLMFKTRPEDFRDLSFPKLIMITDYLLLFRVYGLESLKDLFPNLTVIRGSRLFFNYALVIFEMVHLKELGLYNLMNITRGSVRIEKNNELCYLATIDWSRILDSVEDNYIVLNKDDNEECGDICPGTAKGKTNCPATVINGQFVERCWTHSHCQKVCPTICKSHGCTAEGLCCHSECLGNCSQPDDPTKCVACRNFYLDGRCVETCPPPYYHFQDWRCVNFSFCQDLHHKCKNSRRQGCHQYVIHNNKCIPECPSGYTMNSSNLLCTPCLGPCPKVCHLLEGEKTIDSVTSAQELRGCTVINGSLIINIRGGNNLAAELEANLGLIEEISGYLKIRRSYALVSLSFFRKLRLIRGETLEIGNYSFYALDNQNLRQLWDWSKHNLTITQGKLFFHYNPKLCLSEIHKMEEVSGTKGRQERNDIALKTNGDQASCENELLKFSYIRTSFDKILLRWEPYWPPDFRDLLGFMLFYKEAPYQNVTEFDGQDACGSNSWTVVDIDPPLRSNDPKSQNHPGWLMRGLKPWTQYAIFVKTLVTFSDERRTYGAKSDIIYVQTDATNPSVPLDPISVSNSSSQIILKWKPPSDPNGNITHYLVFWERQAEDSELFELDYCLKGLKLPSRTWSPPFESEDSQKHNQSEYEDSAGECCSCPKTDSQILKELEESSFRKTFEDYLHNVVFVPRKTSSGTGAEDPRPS
# Chain of Insulin receptor (Homo sapiens) (P06213 763-1382 limits assumed): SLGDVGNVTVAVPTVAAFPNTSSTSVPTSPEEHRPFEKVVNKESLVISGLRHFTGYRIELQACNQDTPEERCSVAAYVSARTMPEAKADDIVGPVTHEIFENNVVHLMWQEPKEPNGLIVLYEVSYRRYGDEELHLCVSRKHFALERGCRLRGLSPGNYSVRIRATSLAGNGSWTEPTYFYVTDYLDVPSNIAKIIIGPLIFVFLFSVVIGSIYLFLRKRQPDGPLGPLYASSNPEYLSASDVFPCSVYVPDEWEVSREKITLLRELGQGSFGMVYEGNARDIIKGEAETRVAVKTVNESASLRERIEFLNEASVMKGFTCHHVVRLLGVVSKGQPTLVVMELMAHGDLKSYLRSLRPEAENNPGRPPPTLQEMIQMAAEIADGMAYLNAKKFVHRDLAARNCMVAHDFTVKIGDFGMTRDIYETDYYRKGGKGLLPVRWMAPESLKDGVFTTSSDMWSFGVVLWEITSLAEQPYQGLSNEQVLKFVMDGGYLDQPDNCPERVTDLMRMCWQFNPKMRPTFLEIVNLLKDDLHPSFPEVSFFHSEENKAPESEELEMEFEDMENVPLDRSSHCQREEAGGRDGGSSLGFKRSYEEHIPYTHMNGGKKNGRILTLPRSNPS
# Chain of Tyrosine-protein kinase HCK (Homo sapiens) (P08631 2-526 limits assumed): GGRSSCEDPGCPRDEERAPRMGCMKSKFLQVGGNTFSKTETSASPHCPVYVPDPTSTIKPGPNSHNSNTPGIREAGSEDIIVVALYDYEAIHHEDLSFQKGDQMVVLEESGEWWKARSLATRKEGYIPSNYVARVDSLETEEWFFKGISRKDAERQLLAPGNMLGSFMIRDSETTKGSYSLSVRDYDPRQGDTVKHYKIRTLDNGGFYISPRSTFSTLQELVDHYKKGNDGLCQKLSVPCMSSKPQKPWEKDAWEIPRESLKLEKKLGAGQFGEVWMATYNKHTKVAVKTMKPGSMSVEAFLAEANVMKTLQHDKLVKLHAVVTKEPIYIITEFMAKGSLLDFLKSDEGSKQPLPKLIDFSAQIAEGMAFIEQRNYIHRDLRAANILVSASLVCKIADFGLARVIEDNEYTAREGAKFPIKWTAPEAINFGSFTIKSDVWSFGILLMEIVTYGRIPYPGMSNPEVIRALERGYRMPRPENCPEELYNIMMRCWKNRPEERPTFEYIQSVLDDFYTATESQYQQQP
SMILES,residual activity [1] [%],residual activity [2] [%],residual activity [3] [%],residual activity [4] [%],residual activity [5] [%],residual activity [6] [%],residual activity [7] [%],residual activity [8] [%],residual activity [9] [%],residual activity [10] [%],inhibition [11] [%]
CC1=C(C#N)C(c2ccc3c(c2)c(NC(=O)c2ccccc2C)nn3C)C(C#N)=C(C)N1 [BAY-974],87,83,98,82,86,66,100,100,65,79,9.49
CCc1ccccc1C(=O)Nc1n[nH]c2c(C)c(F)c(C3C(C#N)=C(C)N(C)C(C)=C3C#N)cc12 [BAY-3827],45,0,82,74,100,100,95,100,100,100,22.5
